Laboratory results taken from ChEMBL document CHEMBL1201862, “PubChem BioAssay data set” (2004).
Several values for one entry are separate records, joined by “and”; a condition that tells them apart may be missing. Identical values can stand only once.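 Growth conditions: 96-well plates. Treatment: test compound, 48 hours, 5 concentrations. Analysis: linear interpolation between bracketing concentrations; unreached endpoints set to highest concentration. At the GI50, growth is halved.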 Activity calls are given as the source filed them. Rule as the data show it: active = GI50 up to about 1.1 µM and inactive = higher.

Legend:
Assay in all cases: growth of human tumour cells (NCI), 48 h
786-0 = tested on: 786-0
A498 = tested on: A498
A549 = tested on: A549
ACHN = tested on: ACHN
BT-549 = tested on: BT-549
CAKI-1 = tested on: CAKI-1
CCRF-CEM = tested on: CCRF-CEM
COLO 205 = tested on: COLO 205
DU-145 = tested on: DU-145
EKVX = tested on: EKVX
HCC 2998 = tested on: HCC 2998
HCT-116 = tested on: HCT-116
HCT-15 = tested on: HCT-15
HL-60 = tested on: HL-60
HOP-62 = tested on: HOP-62
HOP-92 = tested on: HOP-92
HT-29 = tested on: HT-29
IGROV-1 = tested on: IGROV-1
K562 = tested on: K562
KM12 = tested on: KM12
LOX IMVI = tested on: LOX IMVI
M14 = tested on: M14
MCF7 = tested on: MCF7
MDA-MB-231 = tested on: MDA-MB-231
MDA-MB-435 = tested on: MDA-MB-435
MDA-N = tested on: MDA-N
MOLT-4 = tested on: MOLT-4
Malme-3M = tested on: Malme-3M
NCI-H226 = tested on: NCI-H226
NCI-H23 = tested on: NCI-H23
NCI-H460 = tested on: NCI-H460
NCI-H522 = tested on: NCI-H522
NCI/ADR-RES = tested on: NCI/ADR-RES
OVCAR-4 = tested on: OVCAR-4
OVCAR-5 = tested on: OVCAR-5
OVCAR-8 = tested on: OVCAR-8
PC-3 = tested on: PC-3
RPMI-8226 = tested on: RPMI-8226
RXF 393 = tested on: RXF 393
SF-268 = tested on: SF-268
SF-539 = tested on: SF-539
SK-MEL-2 = tested on: SK-MEL-2
SK-MEL-5 = tested on: SK-MEL-5
SN12C = tested on: SN12C
SNB-19 = tested on: SNB-19
SNB-75 = tested on: SNB-75
SR = tested on: SR
SW-620 = tested on: SW-620
T47D = tested on: T47D
TK-10 = tested on: TK-10
U-251 = tested on: U-251
UACC-257 = tested on: UACC-257
UACC-62 = tested on: UACC-62
UO-31 = tested on: UO-31
Hs-578T = tested on: Hs-578T
OVCAR-3 = tested on: OVCAR-3
SK-MEL-28 = tested on: SK-MEL-28
SK-OV-3 = tested on: SK-OV-3
SF-295 = tested on: SF-295

CCN(CC)CCCNC(=O)c1cc(-c2nccn2C)nc2ccccc12
GI50 (786-0): > 100000 nM (inactive) | GI50 (A498): > 100000 nM (inactive) | GI50 (A549): > 100 µM (inactive) | GI50 (ACHN): > 100 µM (inactive) | GI50 (BT-549): > 100 µM (inactive) | GI50 (CAKI-1): > 100 µM (inactive) | GI50 (CCRF-CEM): > 100000 nM (inactive) | GI50 (COLO 205): > 100000 nM (inactive) | GI50 (DU-145): > 100000 nM (inactive) | GI50 (EKVX): > 100000 nM (inactive) | GI50 (HCC 2998): > 100000 nM (inactive) | GI50 (HCT-116): > 100 µM (inactive) | GI50 (HCT-15): > 100000 nM | GI50 (HL-60): > 100000 nM (inactive) | GI50 (HOP-62): > 100000 nM (inactive) | GI50 (HOP-92): > 100000 nM (inactive) | GI50 (HT-29): > 100000 nM (inactive) | GI50 (IGROV-1): > 100000 nM (inactive) | GI50 (K562): > 100000 nM (inactive) | GI50 (KM12): > 100000 nM (inactive) | GI50 (LOX IMVI): > 100 µM (inactive) | GI50 (M14): > 100000 nM (inactive) | GI50 (MCF7): > 100000 nM (inactive) | GI50 (MDA-MB-231): > 100000 nM (inactive) | GI50 (MDA-MB-435): > 100000 nM (inactive) | GI50 (MDA-N): > 100000 nM (inactive) | GI50 (MOLT-4): > 100000 nM (inactive) | GI50 (Malme-3M): > 100000 nM (inactive) | GI50 (NCI-H226): > 100000 nM (inactive) | GI50 (NCI-H23): > 100000 nM (inactive) | GI50 (NCI-H460): 59700 nM (inactive) | GI50 (NCI-H522): > 100 µM (inactive) | GI50 (NCI/ADR-RES): > 100000 nM (inactive) | GI50 (OVCAR-4): 61200 nM (inactive) | GI50 (OVCAR-5): > 100 µM (inactive) | GI50 (OVCAR-8): > 100000 nM (inactive) | GI50 (PC-3): > 100000 nM (inactive) | GI50 (RPMI-8226): > 100000 nM (inactive) | GI50 (RXF 393): > 100000 nM (inactive) | GI50 (SF-268): > 100000 nM (inactive) | GI50 (SF-539): > 100000 nM (inactive) | GI50 (SK-MEL-2): > 100000 nM (inactive) | GI50 (SK-MEL-5): > 100000 nM (inactive) | GI50 (SN12C): > 100000 nM (inactive) | GI50 (SNB-19): > 100 µM (inactive) | GI50 (SNB-75): 57700 nM (inactive) | GI50 (SR): > 10000 nM (inactive) | GI50 (SW-620): > 100000 nM (inactive) | GI50 (T47D): > 100000 nM (inactive) | GI50 (TK-10): > 100 µM (inactive) | GI50 (U-251): > 100000 nM (inactive) | GI50 (UACC-257): > 100 µM (inactive) | GI50 (UACC-62): > 100000 nM (inactive) | GI50 (UO-31): 50.2 µM (inactive)

COc1cc2c3c(c4cc(OC)c(OC)cc4c2cc1OC)CN1CCC[C@H]1C3 [(S)-TYLOPHORINE]
GI50 (A498): < 10 nM (active) | GI50 (A549): < 10 nM (active) and 13.2 nM (active) | GI50 (ACHN): < 10 nM (active) and 14.5 nM (active) | GI50 (BT-549): 22.5 nM (active) and 39.5 nM (active) | GI50 (CAKI-1): < 16.3 nM (active) and 25.8 nM (active) | GI50 (HCT-116): < 10 nM (active) and 17.9 nM (active) | GI50 (Hs-578T): 404 nM (active) | GI50 (LOX IMVI): < 10 nM (active) and 11.9 nM (active) | GI50 (MCF7): 10.7 nM (active) | GI50 (MDA-MB-231): < 10.9 nM (active) | GI50 (NCI-H226): 29.4 nM (active) | GI50 (NCI-H522): 56.6 nM (active) and < 40.6 nM (active) | GI50 (OVCAR-3): 58.9 nM (active) and 42.3 nM (active) | GI50 (OVCAR-5): < 12.1 nM (active) and 16.6 nM (active) | GI50 (SK-MEL-28): < 13.7 nM (active) and 9.06 nM (active) | GI50 (SK-OV-3): < 12.2 nM (active) and 12.6 nM (active) | GI50 (SNB-19): < 10 nM (active) and 9.35 nM (active) | GI50 (TK-10): < 16.7 nM (active) and 19.4 nM (active) | GI50 (UACC-257): 14.3 nM (active) and 26.6 nM (active) | GI50 (UO-31): 39.9 nM (active) and < 20.8 nM (active)

CC(=O)O[C@@H]1C2=C(C3=C([O-])C4=CC=CC(=O)C4C(=O)C3=C2[N+]#N)[C@H](OC(C)=O)[C@@H](OC(C)=O)[C@]1(C)O (stereo partly drawn)
GI50 (786-0): 306 nM (active) | GI50 (A498): 923 nM (active) | GI50 (A549): 0.292 µM (active) | GI50 (ACHN): 0.141 µM (active) | GI50 (BT-549): 0.631 µM (active) | GI50 (CAKI-1): 0.407 µM (active) | GI50 (CCRF-CEM): 32.3 nM (active) | GI50 (DU-145): 383 nM (active) | GI50 (EKVX): 605 nM (active) | GI50 (HCC 2998): 262 nM (active) | GI50 (HCT-116): 0.1 µM (active) | GI50 (HCT-15): 119 nM | GI50 (HL-60): 105 nM (active) | GI50 (HOP-62): 711 nM (active) | GI50 (HOP-92): 438 nM (active) | GI50 (Hs-578T): 173 nM (active) | GI50 (IGROV-1): 347 nM (active) | GI50 (K562): 151 nM (active) | GI50 (KM12): 333 nM (active) | GI50 (LOX IMVI): 0.124 µM (active) | GI50 (M14): 177 nM (active) | GI50 (MCF7): 392 nM (active) | GI50 (MDA-MB-231): 286 nM (active) | GI50 (MDA-MB-435): 644 nM (active) | GI50 (MDA-N): 361 nM (active) | GI50 (MOLT-4): 95.9 nM (active) | GI50 (Malme-3M): 332 nM (active) | GI50 (NCI-H226): 537 nM (active) | GI50 (NCI-H23): 746 nM (active) | GI50 (NCI-H460): 693 nM (active) | GI50 (NCI-H522): 0.173 µM (active) | GI50 (NCI/ADR-RES): 128 nM (active) | GI50 (OVCAR-3): 502 nM (active) | GI50 (OVCAR-4): 731 nM (active) | GI50 (OVCAR-5): 0.353 µM (active) | GI50 (OVCAR-8): 184 nM (active) | GI50 (PC-3): 417 nM (active) | GI50 (RPMI-8226): 115 nM (active) | GI50 (RXF 393): 565 nM (active) | GI50 (SF-268): 302 nM (active) | GI50 (SF-295): 385 nM (active) | GI50 (SF-539): 508 nM (active) | GI50 (SK-MEL-28): 743 nM (active) | GI50 (SK-MEL-2): 832 nM (active) | GI50 (SK-MEL-5): 506 nM (active) | GI50 (SK-OV-3): 731 nM (active) | GI50 (SNB-19): 0.951 µM (active) | GI50 (SNB-75): 186 nM (active) | GI50 (SR): 101 nM (active) | GI50 (SW-620): 284 nM (active) | GI50 (TK-10): 0.484 µM (active) | GI50 (UACC-257): 0.719 µM (active) | GI50 (UACC-62): 661 nM (active) | GI50 (UO-31): 0.561 µM (active)
